Patent US10709724B2, “Methods of treating mitochondrial dysfunction” (Ecole Polytechnique Federale de Lausanne (EPFL), priority 2011, dated 2020)
“Also recorded” adds a separate entry of the source.

Legend:
C. elegans = experiment: Worm respiration assay (Seahorse XF24); assay type: in vivo; conditions: day 3 adult worms
Procedure: Worm Respiration Assays Oxygen consumption was measured using the Seahorse XF24 equipment (Seahorse Bioscience Inc., North Billerica, Mass.) as described in Yamamoto et al. Typically, 200 animals per conditions were recovered from NGM plates with M9 medium, washed three times in 2 mLM9 to eliminate residual bacteria, and resuspended in 500 μL M9 medium. Worms were transferred in 24-well standard Seahorse plates (#100777-004) (50 worms per well) and oxygen consumption was measured 6 times. Respiration rates were normalized to the number of worms in each individual well. NAD measurement by HPLC For NAD+ quantification, approximately 1000 worms were collected in M9 buffer, washed five times to remove residual bacteria and flash-frozen in liquid nitrogen and stored at −80° C. until analysis. Extraction was started by adding 250 μl of 1.6M perchloric acid on frozen samples, followed by extensive homogenization in a Qiagen tissuelyser, and centrifugation at 20.000 g for 15 min. The supernatant was recovered and neutralized with a 3M potassium carbonate solution. After centrifugation, 100 μl of supernatant was filtered and used for NAD measurement using an HPLC system (Agilent) with a Supelco LC-18-T column (Sigma), as described in Yoshino et al. (Yoshino, K. F. Mills, M. J. Yoon, S. Imai, Nicotinamide Mononucleotide, a Key NAD(+) Intermediate, Treats the Pathophysiology of Diet- and Age-Induced Diabetes in Mice. Cell Metab 14, 528 (2011)).

[1] = test system: AMP-activated protein kinase (AMPK); experiment: AMPK activity (ACC phosphorylation) in C2C12 myotubes; assay type: cell-based; conditions: 24 hrs
Procedure: Immunoprecipitation, SDS-PAGE, Western Blotting. Cells were lysed in lysis buffer (50 mM Tris, […], EDTA 1 mM, NP40 1%, nicotinamide 5 mM, Na-butyrate 1 in M, protease inhibitors pH7.4). Proteins were separated by SDS-PAGE and transferred onto nitrocellulose membranes. The origin of the primary and secondary antibodies used can be found as supplemental experimental procedures. Reactions were developed by enhanced chemiluminescence (Amersham, Little Chalfont, UK), PGC-1α, FOXO1 and Ndufa9 acetylation levels were analyzed by immunoprecipitation from cellular or nuclear lysates of tissues with anti-PGC-1α (Millipore), anti-FOXO1 (Cell Signaling, Danvers, Mass., USA) and anti-Ndufa9 (Abcam) antibody followed by Western blot using an acetyl-lysine antibody (Cell Signaling) that was normalized to total PGC-1a/FOXO1/Ndufa9 levels (Lagouge et al., 2006; Rodgers et al., 2005). In HEK293T cells HA-tagged PGC-1α was overexpressed and was immunoprecipitated using an anti-HA. […] All blots were quantified by densitometry using ImageJ software. […] PGC-1 acetylation was determined using PGC-1 immunoprecipitates from 2 mg of protein extracts, as described in Canto et al. (Canto et al., AMPK regulates energy expenditure by modulating NAD+ metabolism and SIRT1 activity. Nature 458, 1056 (2009)).

| AMPK activity (ACC phosphorylation levels) [1] | SMILES | oxygen consumption (respiration) (C. elegans) |
| --- | --- | --- |
|  | NC(=O)c1ccc[n+]([C@@H]2O[C@H](CO)[C@@H](O)[C@H]2O)c1 [NR, nicotinamide riboside] | increased respiration; also recorded: Oxygen consumption was increased |
| does not alter AMPK activity | CN(C)CC(=O)Nc1ccc2[nH]c(=O)c3ccccc3c2c1 [PJ34] |  |
